Patent US9278925B2, “Substituted 3-(biphenyl-3-yl)-4-hydroxy-8-methoxy-1-azaspiro[4.5]dec-3-en-2-one” (BAYER INTELLECTUAL PROPERTY GMBH, priority 2011, dated 2016)
Where “and” joins values, the source holds several entries; their conditions need not be identical. Identical values can stand only once. Like-named read-outs stand apart in the source and are kept apart here.

How the values were obtained:
[1] = tested on: human PC-3 cells; settings: for T/C: final tumour weight
Method: Xenograft models in immunosuppressed mice were used to determine the antitumour activity in living organisms.
Use was made primarily of a prostate carcinoma model with hormone-independent human PC-3 cells in male nude mice (NMRI-nude (nu/nu) mice, Taconic M&B A/S). To this end, 3 million tumour cells (suspended in medium+Matrigel 1:1, final 0.1 ml) were injected subcutaneously into the side of each animal. When the tumours extended to an area of 20-30 mm^2, the mice were randomized into therapy groups and therapy was initiated. […] At this point in time, the experiment was terminated in all groups and the prepared tumours were weighed.
The T/C value was calculated as primary success parameter using the effect on the final tumour weight: mean tumour weight in the treatment group divided by mean of the tumour weight in the vehicle group.
(§1) Administration route: oral
Vehicle: PEG400/ethanol/Solutol HS 15 (70/5/25, v/v/v)
Administration volume: 10 ml/kg
Number of mice: see Table 8

[2] = Pharmacokinetic parameters in the rat (i.v. and intragastric); format: in vivo; settings: for F: oral bioavailability; for t½: terminal
Method: Determination of the Pharmacokinetic Parameters of a Test Substance in the Rat and in the Dog For this, the test substances were applied in dissolved form both for intravenous, and for intragastric application, wherein compatible solubilizers such as PEG400 and/or ethanol were used in a compatible amount. […] Administration was as a bolus injection in the male rat and as an infusion in the female dog (15 min) At various time points after the bolus injection, and before and after the 15-minute infusion, blood samples of about 100-150 μl were removed via a catheter either from the jugular vein (rat) or from the saphenous vein (dog). Lithium-heparin was added as anticoagulant to the blood samples and they were stored in a refrigerator until required for further processing. After centrifugation of the samples for 15 min at 3000 rpm, an aliquot of 100 μl was taken from the supernatant (plasma) and was precipitated by adding 400 μl of cold ACN or methanol (absolute). The precipitated samples were frozen-out at […] overnight, then centrifuged again at 3000 rpm for 15 min, before 150 μl of the clear supernatant were removed to determine the concentration. The analysis was effected by means of an Agilent 1200 HPLC system with connected LCMS/MS detection. Calculation of the PK parameters (using PK calculation software, e.g. WinNonLin®): CLplasma: total plasma clearance of the test substance (in 1*kg/h); CLblood: total blood clearance of the test substance (in 1*kg/h), where (CLblood=CLplasma*Cp/Cb); Vss: apparent steady-state distribution volume (in 1/kg); t½: half-life within a specified interval (here: terminal t½, in h); AUCnorm: area under the plasma concentration time profile from time point zero extrapolated to infinity divided by the dose normalized for body weight (in kg*l/h); AUC(0-tn)norm: integrated area under the plasma concentration time profile from time point zero until the last time point at which a plasma concentration was measurable, divided by the dose normalized for body weight (in kg*l/h); Cmax: maximum concentration of the test substance in the plasma (in μg/l); Cmax,norm: maximum concentration of the test substance in the plasma divided by the dose normalized for body weight (in kg/l); Cb/Cp: ratio of the blood to plasma concentration distribution. […] At various time points after administration, blood samples of about 100-150 μl were removed via a catheter either from the jugular vein (rat) or from the saphenous vein (dog). Lithium-heparin was added as anticoagulant to the blood samples and they were stored in a refrigerator until required for further processing. After centrifugation of the samples for 15 min at 3000 rpm, an aliquot of 100 μl was taken from the supernatant (plasma) and was precipitated by adding 400 μl of cold ACN or methanol (absolute). The precipitated samples were frozen-out at −20° C. overnight, then centrifuged at 3000 rpm for 15 min, before 150 μl of the clear supernatant were removed to determine the concentration. The analysis was effected by means of an Agilent 1200 HPLC system with connected LCMS/MS detection. […]

[3] = tested on: human ACC1; assay: Human ACC1 enzyme assay (ADP-Glo); format: biochemical
Method: (§2) Typical concentrations were in the range of 1.75 μl.

[4] = target: human ACC1 (Homo sapiens, UniProt Q13085); assay: Human ACC1 enzyme assay (ADP-Glo); format: biochemical; settings: individual measurement (measurement no./preparation no. in table), read-out: ACC 1 IC50
Method: as §2

[5] = target: human ACC2 (Homo sapiens (Human), UniProt O00763); assay: Human ACC2 enzyme assay (ADP-Glo); settings: read-out: ACC 2 IC50, individual measurement (measurement no./preparation no. in table)
Sequence of human ACC2 (O00763 27-2458 limits assumed): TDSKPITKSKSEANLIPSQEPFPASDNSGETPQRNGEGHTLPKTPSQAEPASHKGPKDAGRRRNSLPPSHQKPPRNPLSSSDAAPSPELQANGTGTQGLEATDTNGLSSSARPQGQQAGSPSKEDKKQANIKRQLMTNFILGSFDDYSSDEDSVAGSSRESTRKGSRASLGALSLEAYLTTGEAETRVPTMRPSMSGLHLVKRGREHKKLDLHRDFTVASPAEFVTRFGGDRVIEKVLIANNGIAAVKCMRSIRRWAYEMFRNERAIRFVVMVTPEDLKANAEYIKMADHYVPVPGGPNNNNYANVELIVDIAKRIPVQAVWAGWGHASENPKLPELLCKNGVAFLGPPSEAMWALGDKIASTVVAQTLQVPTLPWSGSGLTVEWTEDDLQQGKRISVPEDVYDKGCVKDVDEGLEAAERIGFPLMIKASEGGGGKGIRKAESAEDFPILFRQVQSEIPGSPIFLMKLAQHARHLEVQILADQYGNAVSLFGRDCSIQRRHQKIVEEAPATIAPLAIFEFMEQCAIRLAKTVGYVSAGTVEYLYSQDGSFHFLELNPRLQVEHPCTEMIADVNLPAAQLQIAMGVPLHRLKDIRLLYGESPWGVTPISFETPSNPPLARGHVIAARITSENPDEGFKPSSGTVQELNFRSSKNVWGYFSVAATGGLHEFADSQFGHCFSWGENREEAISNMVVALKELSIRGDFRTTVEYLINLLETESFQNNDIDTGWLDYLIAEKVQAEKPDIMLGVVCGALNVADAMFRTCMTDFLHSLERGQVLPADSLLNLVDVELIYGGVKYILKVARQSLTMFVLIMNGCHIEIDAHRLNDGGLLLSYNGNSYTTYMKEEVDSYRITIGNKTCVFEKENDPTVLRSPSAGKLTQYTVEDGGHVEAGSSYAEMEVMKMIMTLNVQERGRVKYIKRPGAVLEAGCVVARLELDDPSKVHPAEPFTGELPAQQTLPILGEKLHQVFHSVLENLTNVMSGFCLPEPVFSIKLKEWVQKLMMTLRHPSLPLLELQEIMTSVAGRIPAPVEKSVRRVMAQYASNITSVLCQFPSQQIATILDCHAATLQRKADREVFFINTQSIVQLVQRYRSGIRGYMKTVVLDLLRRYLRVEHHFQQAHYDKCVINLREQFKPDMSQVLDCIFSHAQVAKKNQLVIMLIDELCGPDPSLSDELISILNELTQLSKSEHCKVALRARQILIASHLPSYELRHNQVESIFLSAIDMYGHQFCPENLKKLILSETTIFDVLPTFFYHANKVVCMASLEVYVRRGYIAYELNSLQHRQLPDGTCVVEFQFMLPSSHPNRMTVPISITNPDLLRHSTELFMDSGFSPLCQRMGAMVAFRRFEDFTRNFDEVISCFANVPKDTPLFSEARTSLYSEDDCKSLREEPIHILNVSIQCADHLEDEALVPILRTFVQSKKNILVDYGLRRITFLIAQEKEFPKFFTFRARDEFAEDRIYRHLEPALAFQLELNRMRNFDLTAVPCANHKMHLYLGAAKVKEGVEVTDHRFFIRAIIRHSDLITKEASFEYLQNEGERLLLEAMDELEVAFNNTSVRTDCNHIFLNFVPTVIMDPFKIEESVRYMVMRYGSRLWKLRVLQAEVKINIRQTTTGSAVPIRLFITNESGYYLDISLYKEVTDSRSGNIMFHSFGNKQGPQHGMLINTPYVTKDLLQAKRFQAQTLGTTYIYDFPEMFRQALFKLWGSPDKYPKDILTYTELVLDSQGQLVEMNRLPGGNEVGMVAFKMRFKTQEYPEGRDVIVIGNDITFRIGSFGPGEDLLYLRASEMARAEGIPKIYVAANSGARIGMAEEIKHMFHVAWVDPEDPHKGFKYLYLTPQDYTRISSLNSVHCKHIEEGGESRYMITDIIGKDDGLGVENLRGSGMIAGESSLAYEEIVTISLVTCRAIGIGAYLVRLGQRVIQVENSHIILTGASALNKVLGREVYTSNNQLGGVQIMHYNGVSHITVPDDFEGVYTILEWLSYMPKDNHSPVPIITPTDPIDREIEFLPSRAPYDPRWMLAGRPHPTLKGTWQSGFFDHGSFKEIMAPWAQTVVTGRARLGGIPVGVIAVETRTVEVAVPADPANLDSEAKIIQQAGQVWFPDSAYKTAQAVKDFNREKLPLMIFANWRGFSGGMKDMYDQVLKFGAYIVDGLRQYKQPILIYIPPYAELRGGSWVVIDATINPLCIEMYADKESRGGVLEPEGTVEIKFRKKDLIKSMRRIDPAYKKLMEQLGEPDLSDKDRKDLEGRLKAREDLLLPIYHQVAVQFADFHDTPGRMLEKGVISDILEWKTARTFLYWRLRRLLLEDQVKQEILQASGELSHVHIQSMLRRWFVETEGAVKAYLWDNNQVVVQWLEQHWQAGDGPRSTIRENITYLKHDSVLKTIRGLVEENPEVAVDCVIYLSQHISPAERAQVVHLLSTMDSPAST

[6] = Prediction of human pharmacokinetic parameters and human therapeutic dosage (single species scaling from rat); settings: for pred. CL (human): predicted (fu-corrected) from rat PK
Method: The human pharmacokinetic (PK) parameters (Table 9) were predicted based on the in vivo PK parameters obtained for rats (single species scaling), taking into account the interspecies differences in the free fraction (fu) in the plasma. The effective AUC (area under curve) was determined based on the measured plasma concentration time profile for in vivo efficacy in the PC3 tumour model of the mouse (nu/nu mouse). The therapeutic human dosage was determined using the predicted human clearance (CL), assuming 100% bioavailability (F=1) and using the effective AUC in the animal model according to the formula below: […]

[7] = Effective AUC from plasma concentration time profile in the PC3 tumour model; format: in vivo, mouse
Method: The human pharmacokinetic (PK) parameters (Table 9) were predicted based on the in vivo PK parameters obtained for rats (single species scaling), taking into account the interspecies differences in the free fraction (fu) in the plasma. The effective AUC (area under curve) was determined based on the measured plasma concentration time profile for in vivo efficacy in the PC3 tumour model of the mouse (nu/nu mouse).

[8] = Maximum tolerated dose (MTD) in female nude mice; format: in vivo, mouse; settings: for Deaths: 21 days, 1 administration per day; for MTD at 21 days: female, NMRI-nude (nu/nu), mouse, in vivo, 21-day treatment, administration once per day, oral
Method: To this end, initially the maximum tolerable dose (MTD) was determined using the following protocol:
The MTD was defined as the highest dose which could be administered without any animal dying during the treatment phase, and without any body weight loss of more than 10% compared to the initial weight.
as §1
• (Solutol HS15: polyoxyethylene ester of 12-hydroxystearic acid) Administration volume: 10 ml/kg: Protocol: see Table 7
The treatment phase was followed by an observation phase of 21 days.

[9] = 100 mg/kg oral, 14 days, 1 administration per day
[10] = 100 mg/kg oral, 14 days, 2 administrations per day
[11] = 40 mg/kg oral, 20 days, 1 administration per day
[12] = 80 mg/kg oral, 14 days, 2 administrations per day
[13] = 80 mg/kg oral, 20 days, 1 administration per day

## CO[C@]1(C)CC[C@]2(CC1)NC(=O)C(c1cc(-c3ccc(Cl)cc3)ccc1C)=C2O [Example V.1-a, (5r,8r)-3-(4′-Chloro-4-methylbiphenyl-3-yl)-4-hydroxy-8-methoxy-8-methyl-1-azaspiro[4.5]dec-3-en-2-one]
[1]; [9]
  Deaths: 0 of 9
  T/C: 0.30
[1]; [10]
  Deaths: 2 of 9
  T/C: 0.15
[1]; 100 mg/kg, administration 2 times per day
  tolerability (good: body weight change <=minus 10% and 100% survival): no good tolerability
[1]; 100 mg/kg, administration once per day
  tolerability (good: body weight change <=minus 10% and 100% survival): good tolerability
[2]
  CLplasma: 0.009 L/h/kg
  Vss: 0.3 L/kg
  F: 83%
  t½: 28 h
[3]
  Selectivity ACC1 vs. ACC2 (mean of the individual measurements ± standard deviation): 28.2 ± 8.5
[4]
  IC50: 108 nM and 182 nM and 132 nM and 97 nM and 55 nM and 104 nM and 213 nM and 137 nM and 151 nM and 81 nM and 91 nM and 147 nM and 158 nM
[5]
  IC50: 3.13 µM and 3.93 µM and 4.54 µM and 2.53 µM and 2.33 µM and 2.51 µM and 3.36 µM and 2.75 µM and 2.03 µM and 2.86 µM and 3.32 µM and 5.14 µM and 5.2 µM
[5]; listed as V.3-a
  IC50: 3.13 µM and 3.93 µM and 4.54 µM and 2.53 µM and 2.33 µM and 2.51 µM and 3.36 µM and 2.75 µM and 2.03 µM and 2.86 µM and 3.32 µM and 5.14 µM and 5.2 µM
[6]; from mouse dosage 100 mg/kg 1 × per day
  calc. AUC (human): 6494 µg·h/mL
[6]; from mouse dosage 100 mg/kg 2 × per day
  calc. AUC (human): 9867 µg·h/mL
[6]
  pred. CL (human): 3 mL/h/kg
[7]; dosage (mouse) 100 mg/kg 1 × per day
  ther. AUC (mouse): 984 mg·h/L
[7]; dosage (mouse) 100 mg/kg 2 × per day
  ther. AUC (mouse): 1495 mg·h/L
[8]; 25 mg/kg oral
  Deaths: 0 of 4
[8]; 50 mg/kg oral
  Deaths: 0 of 4
[8]; 100 mg/kg oral
  Deaths: 0 of 4
[8]
  MTD at 21 days: > 100 mg/kg

## CO[C@]1(C)CC[C@]2(CC1)NC(=O)C(c1cc(-c3ccc(Cl)c(F)c3)ccc1C)=C2O [Example V.2-a, (5r,8r)-3-(4′-Chloro-3′-fluoro-4-methylbiphenyl-3-yl)-4-hydroxy-8-methoxy-8-methyl-1-azaspiro[4.5]dec-3-en-2-one]
[1]; [11]
  Deaths: 0 of 9
  T/C: 0.71
[1]; [12]
  Deaths: 1 of 9
  T/C: 0.27
[1]; [13]
  Deaths: 0 of 9
  T/C: 0.44
[1]; 80 mg/kg, administration 2 times per day
  tolerability (good: body weight change <=minus 10% and 100% survival): no good tolerability
[1]; 80 mg/kg, administration once per day
  tolerability (good: body weight change <=minus 10% and 100% survival): good tolerability
[2]
  CLplasma: 0.013 L/h/kg
  Vss: 0.51 L/kg
  F: 71%
  t½: 33 h
[3]
  Selectivity ACC1 vs. ACC2 (mean of the individual measurements ± standard deviation): 57.2 ± 6.4
[3]; listed as V.4-a
  Selectivity ACC1 vs. ACC2 (mean of the individual measurements ± standard deviation): 57.2 ± 26.4
[4]; listed as V.4-a
  IC50: 83 nM and 249 nM and 63 nM and 67 nM and 154 nM and 184 nM (2×) and 90 nM and 87 nM and 75 nM
[4]
  IC50: 83 nM and 249 nM and 63 nM and 67 nM and 154 nM and 184 nM (2×) and 90 nM and 87 nM and 75 nM
[5]
  IC50: 9.56 µM and 9.2 µM and 4.99 µM and 5.8 µM and 8.63 µM and 7.81 µM and 8.81 µM and 3.99 µM and 2.14 µM and 2.9 µM
[5]; listed as V.4-a
  IC50: 9.56 µM and 9.2 µM and 4.99 µM and 5.8 µM and 8.63 µM and 7.81 µM and 8.81 µM and 3.99 µM and 2.14 µM and 2.9 µM
[6]; from mouse dosage 80 mg/kg 1 × per day
  calc. AUC (human): 3737 µg·h/mL
[6]; from mouse dosage 80 mg/kg 2 × per day
  calc. AUC (human): 4702 µg·h/mL
[6]
  pred. CL (human): 6 mL/h/kg
[7]; dosage (mouse) 80 mg/kg 1 × per day
  ther. AUC (mouse): 544 mg·h/L
[7]; dosage (mouse) 80 mg/kg 2 × per day
  ther. AUC (mouse): 672 mg·h/L
[8]; 10 mg/kg oral
  Deaths: 0 of 4
[8]; 20 mg/kg oral
  Deaths: 0 of 4
[8]; 40 mg/kg oral
  Deaths: 0 of 4
[8]; 80 mg/kg oral
  Deaths: 0 of 4
[8]
  MTD at 21 days: > 80 mg/kg
